In paper PMC6902879 (Journal of medicinal chemistry, 2019):

What was measured:
HS-5 cells = conditions: 24 h; CL, CLsu and conjugates 20 μM; Cipro, TMP, TEL 0.5 μM
[1] = Serum stability in human serum; conditions: human serum (from human male AB plasma), 200 μM, 37 °C, LC-MS
[2] = E. coli (K-12) lysate 0.1 U/mL, compound 200 μM, lysate activities normalized
[3] = system: esterase (bioH, yjfP, frsA, ybfF, yfbB, ypfH, yeiG or yqiA) deletion mutants of E. coli; test: Antibacterial activity against esterase deletion mutants of E. coli; format: cell-based; conditions: eight single esterase gene deletion mutants
[4] = system: ydgR, fepA, ompF deletion mutants of E. coli; format: cell-based; conditions: compared with wild-type E. coli
[5] = Static light scattering before and after addition of PLE; format: physicochemical; conditions: compound 200 μM, [PLE] = 1 U/mL, 24 h
E. coli = test: Antibacterial activity before and after treatment with porcine liver esterase; format: cell-based; conditions: [PLE] = 1 U/mL
E. coli (K-12) = test: Antibacterial activity; format: cell-based; conditions: minimum inhibitory concentration, wild type E. coli (K-12)
Water solubility = format: physicochemical; conditions: in words only

| Structure (SMILES) | apparent first-order rate constant of hydrolysis [2] [h⁻¹] | reduction of antibacterial activity by deletion of a cytoplasmic esterase [3] | effect of deletion of ydgR, fepA or ompF on bacterial viability under treatment [4] | intensity of static light scattering signal after addition of PLE [5] | change of inhibitory efficacy on addition of exogenous PLE (E. coli) | MIC (E. coli (K-12)) [µM] | other results |
| --- | --- | --- | --- | --- | --- | --- | --- |
| O=C(O)CCC(=O)OC[C@@H](NC(=O)C(Cl)Cl)[C@H](O)c1ccc([N+](=O)[O-])cc1 [CLsu, chloramphenicol succinate, reference compound] | – | – | – | – | – | – | cytotoxicity against HS-5 cells (HS-5 cells): lower cytotoxicity than CL; conversion to CL after 24 h ([1]; 24 h): less than 15% |
| O=C(CCC(=O)OC[C@@H](NC(=O)C(Cl)Cl)[C@H](O)c1ccc([N+](=O)[O-])cc1)NCC(=O)N[C@H](CO)C(=O)O [Compound 1c] | 3.763 | about 20% | hardly rescues the bacteria | increase drastically | hardly changes the inhibitory efficacy | – | time to complete hydrolysis [1]: ≤ 2 h |
| O=C(O)CNC(=O)[C@@H](CO)NC(=O)CCC(=O)OC[C@@H](NC(=O)C(Cl)Cl)[C@H](O)c1ccc([N+](=O)[O-])cc1 [Compound 1d] | 1.267 | ~10% | hardly rescues the bacteria | increase drastically | hardly changes the inhibitory efficacy | – | – |
| NCCCC[C@@H](NC(=O)[C@@H](CCCCN)NC(=O)CCC(=O)OC[C@@H](NC(=O)C(Cl)Cl)[C@H](O)c1ccc([N+](=O)[O-])cc1)C(=O)O [Compound 2b] | 0.317 | about 20% | hardly rescues the bacteria | increase drastically | hardly changes the inhibitory efficacy | – | – |
| NCCCC[C@H](NC(=O)[C@H](CCCCN)NC(=O)CCC(=O)OC[C@@H](NC(=O)C(Cl)Cl)[C@H](O)c1ccc([N+](=O)[O-])cc1)C(=O)O [Compound 2c] | 0.310 | about 20% | hardly rescues the bacteria | increase drastically | hardly changes the inhibitory efficacy | – | – |
| O=C(O)CC[C@@H](NC(=O)[C@@H](CCC(=O)O)NC(=O)CCC(=O)OC[C@@H](NC(=O)C(Cl)Cl)[C@H](O)c1ccc([N+](=O)[O-])cc1)C(=O)O [Compound 2g] | – | – | – | – | – | > 200 | – |
| O=C(O)C[C@@H](NC(=O)[C@@H](CC(=O)O)NC(=O)CCC(=O)OC[C@@H](NC(=O)C(Cl)Cl)[C@H](O)c1ccc([N+](=O)[O-])cc1)C(=O)O [Compound 2h] | – | – | – | – | – | > 200 | – |
| C[C@@H](NC(=O)CCC(=O)OC[C@@H](NC(=O)C(Cl)Cl)[C@H](O)c1ccc([N+](=O)[O-])cc1)C(=O)O [Compound 4a] | – | – | – | – | – | > 200 | – |
| COC(=O)CCC(=O)OC[C@@H](NC(=O)C(Cl)Cl)[C@H](O)c1ccc([N+](=O)[O-])cc1 [Compound 4b] | – | – | – | – | – | >200 | water solubility (Water solubility): water-insoluble |
| CC[C@H]1OC(=O)[C@H](C)C(=O)[C@H](C)[C@@H](O[C@@H]2O[C@H](C)C[C@H](N(C)C)[C@H]2O)[C@](C)(OC)C[C@@H](C)C(=O)[C@H](C)[C@H]2N(CCCCn3cnc(-c4cccnc4)c3)C(=O)O[C@]12C [telithromycin] | – | – | – | – | – | – | cytotoxicity against HS-5 cells (HS-5 cells): relatively low cytotoxicity |
